Structures can show the parent of a compound that is named as a salt. Where two headings read alike, the source gives them in different places.
Assays:
Format in all cases: biochemical
Human brain NOS = molecular target: T1, Human brain NOS (Homo sapiens, UniProt P29475); assay: Human brain NOS enzyme activity assay; settings: for Ki: isolated enzyme from human brain
T1 construct: Purification of NOS from human brain; from tissue; host or cells: frozen human brain
Description: The mixture was centrifuged at 13,000 g for 1 hour and the supernatant was removed (about 2050 ml). […] The precipitate was pelleted at 13,000 g for 30 minutes and the pellet was resuspended in −400 mls of buffer A with 4 μM tetrahydrobiopterin, 1 μm FAD (Sigma), 1 μM FMN (Sigma). The solution was centrifuged at 41,000 g for 60 minutes. The supernatant was removed, frozen by pouring into liquid nitrogen, and stored overnight at −70° C. The mixture was thawed and passed through a 2′,5′ ADP-agarose column (0.4 g swelled in buffer A) at 4 ml/min. The column was washed with 100 ml buffer A, 200 ml buffer A with 500 mM NaCl, 100 ml Buffer A, then 30 ml buffer A with 5 mM NADPH. […] To the enzyme was added tetrahydrobiopterin to 10 μM, FAD and FMN to 1 μM, and tween to 0.1%. This solution was concentrated by centriprep-30 to a volume of approximately 500 μl. Human NOS was prepared completely analogously except the calmodulin-agarose column was not used.

human placental NOS = molecular target: T2, human placental NOS (Homo sapiens, UniProt P29474); assay: Assay for human placental NOS (citrulline formation); settings: for inhibition at 25 µM: @ 25 μM inhibitor, read-out: Human Placental, percent (inhibition) @ 25 μM
T2 construct: Purification of NOS from human placenta; from tissue; host or cells: fresh human placenta
T2 sequence (P29474 2-1203): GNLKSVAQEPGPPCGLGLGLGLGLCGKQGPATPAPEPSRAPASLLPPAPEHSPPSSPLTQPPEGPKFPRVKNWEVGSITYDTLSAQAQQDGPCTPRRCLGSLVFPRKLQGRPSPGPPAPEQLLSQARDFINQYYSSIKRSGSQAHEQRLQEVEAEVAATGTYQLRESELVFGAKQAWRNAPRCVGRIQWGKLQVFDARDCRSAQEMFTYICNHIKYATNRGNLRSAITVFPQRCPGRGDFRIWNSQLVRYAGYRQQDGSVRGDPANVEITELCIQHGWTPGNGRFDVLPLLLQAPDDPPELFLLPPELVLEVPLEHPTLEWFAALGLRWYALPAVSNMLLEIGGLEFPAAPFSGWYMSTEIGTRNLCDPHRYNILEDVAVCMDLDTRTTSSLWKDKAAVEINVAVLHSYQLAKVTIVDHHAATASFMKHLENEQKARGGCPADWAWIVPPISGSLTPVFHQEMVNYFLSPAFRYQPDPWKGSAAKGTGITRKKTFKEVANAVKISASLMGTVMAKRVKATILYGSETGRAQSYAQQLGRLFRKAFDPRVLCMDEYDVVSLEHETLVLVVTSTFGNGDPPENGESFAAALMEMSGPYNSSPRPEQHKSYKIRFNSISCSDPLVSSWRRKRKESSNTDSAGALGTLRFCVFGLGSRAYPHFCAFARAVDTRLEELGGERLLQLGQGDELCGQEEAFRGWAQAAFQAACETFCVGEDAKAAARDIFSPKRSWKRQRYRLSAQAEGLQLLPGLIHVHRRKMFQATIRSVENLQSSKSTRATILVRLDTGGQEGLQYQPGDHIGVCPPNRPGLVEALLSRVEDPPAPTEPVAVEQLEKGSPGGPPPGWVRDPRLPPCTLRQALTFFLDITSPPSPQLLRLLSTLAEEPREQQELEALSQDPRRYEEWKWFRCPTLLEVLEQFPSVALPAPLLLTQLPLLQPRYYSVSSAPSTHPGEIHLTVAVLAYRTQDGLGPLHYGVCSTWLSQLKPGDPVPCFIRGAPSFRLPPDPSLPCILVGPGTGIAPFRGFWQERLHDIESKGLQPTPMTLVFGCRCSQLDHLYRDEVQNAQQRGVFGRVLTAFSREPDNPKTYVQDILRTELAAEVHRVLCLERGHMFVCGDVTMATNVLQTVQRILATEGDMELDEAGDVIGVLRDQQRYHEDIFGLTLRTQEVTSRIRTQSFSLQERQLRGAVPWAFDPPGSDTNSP
Description: (§1) NOS was assayed for the formation of citrulline following the procedure of Schmidt et al (PNAS 88 365-369, 1991) with these modifications: 20 mM Hepes, pH 7.4, 10 μg/ml calmodulin, 2.5 mM CaCl2 2.5 mM DTT, 125 μM NADPH 10 μM H4 Biopterin, 0.5 mg/ml BSA, and 1 μM L-[14C] arginine (New England Nuclear). Linearity of NOS-catalyzed rate was confirmed prior to kinetic studies that used single tine point determination of rate.

inducible human NOS = molecular target: T3, inducible human NOS (Homo sapiens, UniProt P35228); assay: Assay for inducible human NOS (citrulline formation), enzyme from cytokine-induced DLD-1 cells; settings: for inhibition at 25 µM: @ 25 μM inhibitor, read-out: Human Inducible, percent (inhibition) @ 25 μM
T3 construct: Purification of NOS cytokine-induced human colorectal adenocarcinoma DLD-1 cells; endogenous in cells; host or cells: DLD-1 (ATCC No. CCL 221), induced with IFN-gamma, IL-6, TNF and IL-1beta
T3 sequence (P35228 whole entry): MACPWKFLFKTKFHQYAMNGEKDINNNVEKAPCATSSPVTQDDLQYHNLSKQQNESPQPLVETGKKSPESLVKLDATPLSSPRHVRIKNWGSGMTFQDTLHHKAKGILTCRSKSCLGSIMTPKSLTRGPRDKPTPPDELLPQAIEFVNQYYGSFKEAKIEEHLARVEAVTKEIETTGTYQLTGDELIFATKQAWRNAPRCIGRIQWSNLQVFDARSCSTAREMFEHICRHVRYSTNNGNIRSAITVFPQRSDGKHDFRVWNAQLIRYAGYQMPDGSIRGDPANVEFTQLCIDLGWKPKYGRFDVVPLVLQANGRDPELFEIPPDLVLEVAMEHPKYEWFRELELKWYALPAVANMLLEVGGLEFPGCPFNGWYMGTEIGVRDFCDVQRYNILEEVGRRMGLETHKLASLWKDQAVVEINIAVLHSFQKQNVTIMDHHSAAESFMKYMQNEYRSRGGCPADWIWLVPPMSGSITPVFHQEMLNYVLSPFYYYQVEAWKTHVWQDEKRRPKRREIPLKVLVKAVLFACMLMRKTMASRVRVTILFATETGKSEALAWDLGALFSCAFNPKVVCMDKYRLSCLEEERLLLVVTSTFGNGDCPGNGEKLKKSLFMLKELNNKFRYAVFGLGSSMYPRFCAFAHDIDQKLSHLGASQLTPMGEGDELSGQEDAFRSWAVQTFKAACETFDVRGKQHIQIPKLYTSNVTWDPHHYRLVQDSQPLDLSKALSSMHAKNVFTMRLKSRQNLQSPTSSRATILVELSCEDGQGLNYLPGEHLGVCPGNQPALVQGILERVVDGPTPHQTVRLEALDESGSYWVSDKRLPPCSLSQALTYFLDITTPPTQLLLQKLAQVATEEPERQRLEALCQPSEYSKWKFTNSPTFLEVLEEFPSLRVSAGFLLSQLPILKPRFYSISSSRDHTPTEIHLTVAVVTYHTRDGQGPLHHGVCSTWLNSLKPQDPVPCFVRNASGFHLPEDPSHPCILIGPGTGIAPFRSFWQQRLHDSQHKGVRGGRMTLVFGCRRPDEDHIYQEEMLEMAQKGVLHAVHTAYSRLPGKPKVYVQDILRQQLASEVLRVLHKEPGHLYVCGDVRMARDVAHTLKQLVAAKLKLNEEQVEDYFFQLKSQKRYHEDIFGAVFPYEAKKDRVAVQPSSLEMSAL
Description: as §1
DLD-1 (ATCC No. CCL 221) were grown at 37° C., 5% CO2 in RPMI 1640 medium supplemented with L-glutamin, penicillin, streptomycin, and 10% heat-inactivated fetal bovine serum. Cells were grown to confluency and then the following cocktail of cytokines were added: 100 units/ml interferon-gamma, 200 units/ml interleukin-6, 10 ng/ml tumor necrosis factor, and 0.5 ng/mil interleukin-1β. At 10-24 hr post-induction, cells were harvested by scraping and washed with phosphate-buffered saline. Pelleted cells were stored at −70° C. Purification of the induced NOS was performed at 4° C. Crude extract was prepared by three cycles of freeze/thawing cells in TDGB (20 mM tris pH 7.5, 10% glycerol, 1 mM DTT, 2 μM tetrahydrobiopterin). Extract was applied directly onto a column of 2′,5′ ADP sepharse (Pharmacia). Resin was sequentially washed with TDGB, 0.5 M NaCl in TDGB, TDGB. NOS was eluted with 2 mM NADPH in TDGB. BSA was immediately added to give a final concentration of 1 mg/ml. NOS could be quick frozen and stored at −70° C. without loss in activity for at least 2 months.
Assay for inducible human NOS.
The formation of citrulline was assayed as described above except that 10 μM FAD was included and calmodulin and CaCl2 were excluded from the assay mix.

[1] = isolated enzyme from human placenta, read-out: Human Placental Ki/μM
[2] = isolated enzyme from DLD-1 cells, read-out: Human Inducible Ki/μM
[3] = from percent inhibition at three or more concentrations at a single time point, assuming competitive inhibition with respect to arginine, read-out: Human Inducible Ki/μM (footnote b)

T1 sequence (P29475 whole entry): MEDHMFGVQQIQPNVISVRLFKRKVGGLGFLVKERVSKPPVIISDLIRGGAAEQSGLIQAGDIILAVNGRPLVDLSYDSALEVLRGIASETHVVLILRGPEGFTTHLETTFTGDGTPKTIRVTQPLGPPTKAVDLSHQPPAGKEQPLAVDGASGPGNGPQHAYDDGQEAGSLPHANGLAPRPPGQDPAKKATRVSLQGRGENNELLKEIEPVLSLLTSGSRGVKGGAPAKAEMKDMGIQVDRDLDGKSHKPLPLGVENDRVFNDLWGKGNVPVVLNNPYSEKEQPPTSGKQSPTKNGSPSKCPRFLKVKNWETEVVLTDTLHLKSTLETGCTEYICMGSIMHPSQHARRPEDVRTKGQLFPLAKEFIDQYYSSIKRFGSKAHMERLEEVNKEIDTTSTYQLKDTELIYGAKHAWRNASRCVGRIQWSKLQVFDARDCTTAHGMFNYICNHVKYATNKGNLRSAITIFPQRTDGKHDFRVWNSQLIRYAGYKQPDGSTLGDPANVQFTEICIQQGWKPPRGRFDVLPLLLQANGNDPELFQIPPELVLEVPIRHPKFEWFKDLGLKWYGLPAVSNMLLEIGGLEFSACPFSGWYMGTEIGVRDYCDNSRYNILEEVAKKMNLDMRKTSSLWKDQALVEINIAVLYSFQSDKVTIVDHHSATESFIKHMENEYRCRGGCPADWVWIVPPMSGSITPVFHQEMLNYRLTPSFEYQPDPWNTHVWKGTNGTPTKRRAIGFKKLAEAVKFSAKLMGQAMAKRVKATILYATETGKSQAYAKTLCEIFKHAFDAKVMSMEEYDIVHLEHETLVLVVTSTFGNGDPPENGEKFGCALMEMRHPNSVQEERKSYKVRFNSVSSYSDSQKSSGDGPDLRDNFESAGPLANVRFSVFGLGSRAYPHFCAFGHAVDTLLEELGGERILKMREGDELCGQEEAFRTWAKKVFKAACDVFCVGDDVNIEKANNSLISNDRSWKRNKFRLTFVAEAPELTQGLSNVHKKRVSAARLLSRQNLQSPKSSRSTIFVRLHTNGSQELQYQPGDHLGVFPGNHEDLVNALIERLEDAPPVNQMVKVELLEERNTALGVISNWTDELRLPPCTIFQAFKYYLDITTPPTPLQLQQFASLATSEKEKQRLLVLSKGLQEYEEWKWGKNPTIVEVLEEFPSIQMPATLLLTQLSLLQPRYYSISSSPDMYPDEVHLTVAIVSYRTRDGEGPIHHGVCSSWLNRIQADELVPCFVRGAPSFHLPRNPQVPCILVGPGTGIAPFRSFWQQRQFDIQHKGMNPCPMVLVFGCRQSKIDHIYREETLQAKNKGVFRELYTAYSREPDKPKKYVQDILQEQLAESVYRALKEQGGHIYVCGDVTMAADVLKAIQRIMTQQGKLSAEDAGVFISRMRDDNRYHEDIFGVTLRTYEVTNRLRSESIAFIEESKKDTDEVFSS

Molecule | Ki (Human brain NOS) [µM] | Ki (human placental NOS; [1]) [µM] | Ki (inducible human NOS; [2]) [µM] | other results
N^6-((methylpropylthio)iminomethyl-D-lysine [Example 9N] | 61 | 99 | – | –
CCSC(=N)Nc1ccc(C(=O)O)cc1 [Example 1D, S-ethyl-N-(4-carboxyphenyl)isothiourea] | – | – | – | inhibition at 25 µM (Human brain NOS; @ 25 μM inhibitor, read-out: Human Brain, percent (inhibition) @ 25 μM): 30%; Human Inducible, percent (inhibition), concentration not given (inducible human NOS): 0%; inhibition at 25 µM (human placental NOS): 14%
CCSC(=N)Nc1ccc(N(C)C)cc1 [Example 1G, S-ethyl-N-(4-dimethylaminophenyl)isothiourea] | 1.4 ± 0.01 | 9 | 29 | –
CCSC(=N)Nc1ccc(O)cc1 [Example 1I, S-ethyl-N-(4-hydroxyphenyl)isothiourea] | 0.34 | 2.7 | 2.5 | –
CCSC(=N)Nc1cccc(OC)c1 [Example 1A, S-ethyl-N-(3-methoxyphenyl)isothiourea] | 0.56 ± 0.02 | 3.1 | 3.2 | –
CCSC(=N)Nc1cccc(Cl)c1 [Example 2B, S-Ethyl-N-(3-chlorophenyl)isothiourea] | 0.45 | 1.8 | 2.4 | –
CCSC(=N)Nc1cc(C(F)(F)F)ccc1Cl [Example 2L, S-Ethyl-N-(2-chloro-5-(trifluoromethyl)phenyl)isothiourea] | – | – | – | Human Brain, percent (inhibition), concentration not given (Human brain NOS; concentration not given): 40%; Human Inducible, percent (inhibition), concentration not given (inducible human NOS): 20%; Human Placental, percent (inhibition), concentration not given (human placental NOS): 6%
N^5-(iminomethoxymethyl)-L-ornithine dihydrochloride [10^c(i)] | – | – | – | Ki (inducible human NOS; [3]): 0.22 µM; Ki (human placental NOS; from percent inhibition at three or more concentrations at a single time point, assuming competitive inhibition with respect to arginine, read-out: Human Placental Ki/μM (footnote b)): 0.12 µM
CCSC(=N)Nc1ccccc1C(C)C [Example 2C, S-Ethyl-N-(2-isopropylphenyl)isothiourea] | 1.13 ± 0.02 | 6.5 | 10 | –
CSC(=N)NCc1cccc(CNC(=N)SC)c1 [Example 6, N, N′-((methylthio)iminomethyl)-m-xylylenediamine] | 0.5 | 17 | 2.3 | –
CCSC(=N)Nc1ccncc1 [Example 2M, S-Ethyl-N-(4-pyridyl)isothiourea] | 1 ± 0.2 | 6.9 | 23 | –
N^6-((methylthio)iminomethyl)-D-lysine [Example 9H] | 0.4 | 1.2 | 5.3 | –
CCSC(=N)Nc1ccccn1 [Example 1K, S-ethyl-N-(2-pyridyl)isothiourea] | 4.8 | – | – | inhibition at 25 µM (inducible human NOS): 48%; inhibition at 25 µM (human placental NOS): 48%
N^6-(ethylthio)iminomethyl-D-lysine [Example 9J] | 0.56 | 1.3 | 7 | –
CCSC(=N)Nc1ccc(OC)cc1 [Example 1J, S-ethyl-N-(4-methoxyphenyl)isothiourea] | 0.29 ± 0.04 | 2.7 | 4.9 | –
N^5-(ethoxyiminomethyl)-L-ornithine dihydrochloride [10^c(ii)] | – | – | – | Ki (inducible human NOS; [3]): 0.1 µM; Ki (human placental NOS; from steady state inhibited rate / control rate, assuming competitive inhibition with respect to arginine, read-out: Human Placental Ki/μM (footnote a)): 0.006 µM
CCSC(=N)NCc1cccc(CN)c1 [Example 13A, 1-(3-(Aminomethyl)benzyl)S-ethylisothiourea] | 0.9 | 2.1 | 0.15 | –
N[C@@H](CCCNC1=NCCS1)C(=O)O [Example 5, N^5-(2-thiazolin-2-yl)-L-ornithine] | – | 5.5 | 3.3 | –
N[C@@H](CCCCNC1=NCCS1)C(=O)O [Example 5A, N^6-(2-thiazolin-2-yl)-L-lysine] | – | 21 | 11 | –

Further lines, with some results ahead:

Ki (Human brain NOS) [µM] | Ki (human placental NOS; [1]) [µM] | Ki (inducible human NOS; [2]) [µM] | Molecule | other results
0.32 ± 0.02 | 9.4 | – | CCSC(=N)Nc1ccc(C(F)(F)F)cc1 [Example 2, S-ethyl-N-[4-(trifluoromethyl)phenyl]isothiourea hydrochloride] | inhibition at 25 µM (inducible human NOS): 36%
0.18 ± 0.04 | 1 | 1.9 | CCSC(=N)Nc1ccc(C)cc1 [Example 2I, S-Ethyl-N-(4-methylphenyl)isothiourea] | –
1.1 ± 0.01 | 28 | 3.2 | CCSC(=N)Nc1cccc(C(F)(F)F)c1 [Example 2E, S-Ethyl-N-[3-(trifluoromethyl)phenyl]isothiourea] | –
61 | 79 | – | CC(C)CSC(=N)NCCCC[C@H](N)C(=O)O [Example 9F, N^6-(imino(2-methylpropylthio)methyl)-L-lysine] | –
0.09 | 4.1 | 1.7 | CSC(=N)NCCCC[C@H](N)C(=O)O [Example 9A, N^6-(imino(methylthio)methyl)L-lysine] | –
1 | 6.9 | – | CCSC(=N)Nc1cccnc1 [Example 2J, S-Ethyl-N-(3-pyridyl)isothiourea] | inhibition at 25 µM (inducible human NOS): 47%
61 | 30 | 40 | CC(C)SC(=N)NCCC[C@@H](N)C(=O)O [Example 9K] | –
19.5 | – | 13 | CC(C)CSC(=N)NCCC[C@@H](N)C(=O)O [Example 9M, N^5-((2-methylpropylthio)iminethyl)-D-ornithine] | –
108 | 23 | 19 | CC(C)SC(=N)NCCCC[C@@H](N)C(=O)O [Example 9L] | –
1.5 ± 0.07 | 14 | 28 | CCSC(=N)Nc1ccc(C2CCCCC2)cc1 [Example 1H, S-ethyl-N-(4-cyclohexylphenyl)isothiourea] | –
0.9 | 2.1 | 0.15 | CC(C)SC(=N)NCCC[C@H](N)C(=O)O [Example 9C, N^5-(imino(1-methylethylthio)methyl)-L-ornithine] | –
5.5 | 14 | 5.3 | CCSC(=N)NCc1ccc(CN)cc1 [Example 14A, 1-(4-(Aminomethyl)benzyl)-S-ethylisoiourea] | –
28 | 23.2 | 22.6 | CSC(=N)NCc1ccc(CN)cc1 [Example 14, 1-(4-(Aminomethyl)benzyl)-S-methylisothiourea] | –
1.6 | 12 | > 25 | CCOC(=O)c1ccc(NC(=N)SCC)cc1 [Example 1C, S-ethyl-N-[4-(ethoxycarbonyl)phenyl]isothiourea] | –
0.09 | 4.1 | 1.7 | CCOC(=N)NCc1cccc(CN)c1 [Example 12, 1-(3-(Aminomethyl)benzyl)-O-ethylisourea] | –
4.2 | 8.2 | 17 | CCSC(=N)Nc1ccc(Cl)c(C(F)(F)F)c1 [Example 2K, S-Ethyl-N-(4-chloro-3-(trifluoromethyl)phenyl)isothiourea] | –
3.2 | 22 | 45 | CSC(=N)NCc1ccc(CNC(=N)SC)cc1 [Example 7, N,N-((methylthio)iminomethyl)-p-xylylenediamine] | –
1.9 ± 0.1 | – | – | CCOC(=N)Nc1ccc(C(F)(F)F)cc1 [Example 3A, O-Ethyl-N-(4-(trifluoromethyl)phenyl)isourea] | Human Inducible, percent (inhibition), concentration not given (inducible human NOS): 12%; Human Placental, percent (inhibition), concentration not given (human placental NOS): 35%
0.33 | 7.7 | – | CCSC(=N)Nc1ccc(C(C)C)cc1 [Example 2D, S-Ethyl-N-(4-isopropylphenyl)isothiourea] | –
– | 14 | 44 | CCSC(=N)Nc1cccc(C(=O)O)c1 [Example 1E, S-ethyl-N-(3-carboxyphenyl)isothiourea] | –

Reference: US20010034342A1, “Substituted urea and isothiourea derivatives as no synthase inhibitors” (priority 1993, published 2001)
